Several values for one entry are separate records, joined by “and”; a condition that tells them apart may be missing. Equal entries are not always repeated.
Columns and labels:
[1] = Plasma trough levels (Cmin) of Imatinib and CGP74588, IRIS study (LC/MS/MS); type: in vivo
[2] = in patients; cited from earlier work
CML patients = assay: Cytogenetic (CCR) and molecular (MMR) response to Imatinib mesylate therapy and ROC curve analysis, Bordeaux study; type: in vivo, human; conditions: of 68 CML patients, after at least one year's treatment, 400 or 600 mg once daily
Procedure: The cytogenetic response to Imatinib mesylate therapy was assessed using a conventional cytogenetic analysis of bone marrow metaphases. Cytogenetic responders were defined as having CCR, i.e. 0 percent of Philadelphia-chromosome-positive metaphases among at least 25 cells in metaphase in the bone marrow aspirate (Colombat M, Fort M P, Chollet C, et al. Haematologica 2006; 91:162-8.). Real-time quantitative reverse-transcriptase polymerase chain reaction assay was used to assess BCR-ABL transcript levels and quantify the molecular response (Colombat M, Fort M P, Chollet C, et al. see above). Briefly, EDTA-anticoagulated peripheral blood was collected to perform RNA extraction followed by real-time quantitative reverse-transcriptase polymerase chain reaction. […] Quantification of BCR-ABL transcripts was performed according to recommendations recently proposed for harmoniza-tion of results (Hughes T P, Deininger M, Hochhaus A, et al. Blood 2006; 108:28-37.). […] A standardized baseline was calculated by measuring the ratio of BCR-ABL/ABL in 40 chronic-phase CML patients from blood collected before any treatment. […]
Any relationship between BCR-ABL transcript levels and the range time from date of Imatinib mesylate treatment initiation to date of molecular analysis was evaluated.
Results were expressed as adjusted odds ratio; 95 percent confidence interval; P value of Wald test.

CML-CP patients = assay: CCR and MMR rates by steady-state Imatinib trough level quartile, IRIS study; type: in vivo, human
Procedure: Rates of CCR (defined as 0% Ph+ metaphase cells out of at least 20 examined) in the study population and major molecular response (MMR, defined as ≧3 log reduction in BCR-ABL/BCR ratio from a standardized baseline) in subjects who achieved CCR before were reported previously (O'Brien S G, Guilhot F, Larson R A, et al., see above).
CCR were evaluated up to 5 years.

[3] = tested on: newly diagnosed patients with CML in chronic phase (CML-CP); conditions: cited from earlier work
[4] = Trough plasma Imatinib concentrations at steady-state, Bordeaux study (HPLC-ESI-MS/MS)
[5] = Day 29, Quartiles 2 and 3, N = 178
[6] = five year follow-up, first-line imatinib
[7] = 400 mg daily, 50 patients, steady-state
[8] = 600 mg daily, 18 patients, steady-state
[9] = patients without MMR (34 patients)

SMILES: Cc1ccc(NC(=O)c2ccc(CN3CCNCC3)cc2)cc1Nc1nccc(-c2cccnc2)n1 [CGP74588, N-{5-[4-(piperazino-methyl)-benzoylamido]-2-methylphenyl}-4-(3-pyridyl)-2-pyrimidine-amine]
- Steady-state trough level, mean (±SD) ([1]; Day 29, 400 mg daily, overall N = 351): 241.9±105.5 ng/mL and 242 (±105.5) ng/mL
- CGP74588/Imatinib trough concentration ratio, mean (±SD) ([1]; Day 29, Quartile 1, N = 87): 0.32 (±0.106)
- Steady-state trough level, mean (±SD) ([1]; Day 29, Quartile 1, N = 87): 153 (±48.5) ng/mL
- CGP74588/Imatinib trough concentration ratio, mean (±SD) ([1]; Day 29, Quartile 4, N = 86): 0.21 (±0.052)
- Steady-state trough level, mean (±SD) ([1]; Day 29, Quartile 4, N = 86): 343 (±126.1) ng/mL
- CGP74588/Imatinib trough concentration ratio, mean (±SD) [1, 5]: 0.27 (±0.068)
- Steady-state trough level, mean (±SD) [1, 5]: 236 (±65.8) ng/mL
- 24-hour trough concentration after the first dose ([1]; first 400 mg dose, Day 2, mean±SD): 82.7 ± 47.4 ng/mL
- Contribution of the metabolite to Imatinib exposure ([1]; in vivo): < 20%
- Spearman correlation coefficient between parent drug and metabolite levels ([1]; in vivo): 0.76
- Accumulation ratio to steady state ([1]; trough levels on days 2 and 29 in the same subject): 3.38±1.54
- Metabolite level as share of the parent drug plasma level [2]: ~20%

SMILES: Cc1ccc(NC(=O)c2ccc(CN3CCN(C)CC3)cc2)cc1Nc1nccc(-c2cccnc2)n1 [Imatinib, 4-(4-methylpiperazin-1-ylmethyl)-N-[4-methyl-3-(4-(pyridin-3-yl)pyrimidin-2-ylamino)phenyl]-benzamide]
- Number of patients who achieved a CCR (CML patients): 56
- Steady-state trough level, mean (±SD) ([1]; Day 29, Quartile 1, N = 87): 490 (±119.7) ng/mL
- Steady-state trough level, mean (±SD) ([1]; Day 29, Quartile 4, N = 86): 1661 (±602.0) ng/mL
- Steady-state trough level, mean (±SD) [1, 5]: 889 (±148.2) ng/mL
- Imatinib trough exposure (Cmin), mean ([1]; Day 29, patients who achieved CCR): 1009 ± 544 ng/mL and 1009 ng/mL
- Imatinib trough exposure (Cmin), mean ([1]; Day 29, patients who did not achieve CCR): 812 ± 409 ng/mL and 812 ng/mL
- Increase in trough level ([1]; age from 20 years to 70 years, linear relationship assumed): 295 ng/mL
- Plasma trough level ([1]; females, steady state): 1078 ± 514.5 ng/mL
- concentration at 24 h ([1]; human, plasma, first 400 mg dose, Day 2, mean±SD, read-out: 24-hour trough concentration after the first dose): 518 ± 370 ng/mL
- Plasma trough level ([1]; males, steady state): 921 ± 530.8 ng/mL
- Difference in plasma trough level, females vs males ([1]; steady state): 17.2%
- Estimated decrease in trough level ([1]; weight increase from 40 kg to 120 kg, linear relationship assumed): approximately 280 ng/ml
- MMR (%) in pts with CCR (CML-CP patients; 1 year, Quartile 1): 43%
- CCR rate (CML-CP patients; 1 year, Quartile 1 (n = 87)): 59%
- MMR (%) in pts with CCR (CML-CP patients; 1 year, Quartile 4): 55%
- CCR rate (CML-CP patients; 1 year, Quartile 4 (n = 86)): 73%
- MMR (%) in pts with CCR (CML-CP patients; 1 year, Quartiles 2 and 3): 56%
- CCR rate (CML-CP patients; 1 year, Quartiles 2 and 3 (n = 178)): 71%
- CCR rate (CML-CP patients; 2 years, Quartile 1): 73%
- MMR (%) in pts with CCR (CML-CP patients; 2 years, Quartile 1): 63%
- CCR rate (CML-CP patients; 2 years, Quartile 4): 84%
- MMR (%) in pts with CCR (CML-CP patients; 2 years, Quartile 4): 86%
- CCR rate (CML-CP patients; 2 years, Quartiles 2 and 3): 80%
- MMR (%) in pts with CCR (CML-CP patients; 2 years, Quartiles 2 and 3): 78%
- CCR rate (CML-CP patients; 4 years, Quartile 1): 81%
- MMR (%) in pts with CCR (CML-CP patients; 4 years, Quartile 1): 65%
- CCR rate (CML-CP patients; 4 years, Quartile 4): 89%
- MMR (%) in pts with CCR (CML-CP patients; 4 years, Quartile 4): 90%
- CCR rate (CML-CP patients; 4 years, Quartiles 2 and 3): 87%
- MMR (%) in pts with CCR (CML-CP patients; 4 years, Quartiles 2 and 3): 83%
- Time to CCR (CML-CP patients; Quartile 1): 8.3 Month
- Time to MMR in pts with CCR (CML-CP patients; Quartile 1): 16.7 months
- Time to CCR (CML-CP patients; Quartile 4): 5.6 Month
- Time to CCR (CML-CP patients; Quartiles 2 and 3): 5.7 Month
- Estimated MMR rate, all patients (CML-CP patients; at 1 year, Imatinib levels <647 ng/mL): 25%
- Estimated MMR rate, all patients (CML-CP patients; by 4 years, Q1): 53%
- Estimated MMR rate, all patients (CML-CP patients; by 4 years, Q4): 80%
- Estimated MMR rate, all patients (CML-CP patients; by 4 years, inter-quartile range (IQ)): 72%
- Estimated MMR rate, all patients (CML-CP patients; within 1 year, patients with higher Imatinib levels): 40%
- Efficacy compared with IFN+Ara-C ([3]; 400 mg daily, newly diagnosed CML-CP): superior efficacy to IFN+Ara-C
- Estimated cumulative rate of complete cytogenetic response (CCR) [3, 6]: 87%
- Overall survival [3, 6]: 89%
- Trough plasma Imatinib concentration, mean value ([4]; 400 mg daily Imatinib mesylate, 50 patients, steady-state): 1058 ng per millilitre
- Trough plasma Imatinib concentration, Q 25 (first quartile) [4, 7]: 722 ng per millilitre
- Trough plasma Imatinib concentration, Q 75 (third quartile) [4, 7]: 1285 ng per millilitre
- Trough plasma Imatinib concentration, maximum [4, 7]: 2947 ng per millilitre
- Trough plasma Imatinib concentration, median [4, 7]: 997 ng per millilitre
- Trough plasma Imatinib concentration, minimum [4, 7]: 181 ng per millilitre
- Trough plasma Imatinib concentration, Q 25 (first quartile) [4, 8]: 902 ng per millilitre
- Trough plasma Imatinib concentration, Q 75 (third quartile) [4, 8]: 1629 ng per millilitre
- Trough plasma Imatinib concentration, maximum [4, 8]: 2922 ng per millilitre
- Trough plasma Imatinib concentration, median [4, 8]: 1315 ng per millilitre
- Trough plasma Imatinib concentration, minimum [4, 8]: 603 ng per millilitre
- Mean (±SD) trough plasma Imatinib concentration ([4]; patients with CCR (56 patients)): 1123.3±616.6 ng per millilitre
- Median trough plasma Imatinib concentration ([4]; patients with MMR (34 patients)): 1350.2 ng per millilitre
- Mean (±SD) trough plasma Imatinib concentration ([4]; patients without CCR (12 patients)): 694.2±556.0 ng per millilitre
- Mean (±SD) trough plasma Imatinib concentration [4, 9]: 869.3±427.5 ng per millilitre
- Median trough plasma Imatinib concentration [4, 9]: 885.5 ng per millilitre

Reference: US20170007605A1, “Method of Optimizing the Treatment of Philadelphia-positive Leukemia with Abl Tyrosine Kinase Inhibitors” (Novartis AG, priority 2006, published 2017)
